According to PubChem BioAssay (NCI):
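Interpolation was linear, between the two tested concentrations surrounding the appropriate level; five concentrations were tested over 48 hours in 96-well plates. TGI is the concentration that stops growth completely.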

What was measured:
Assay in all cases: NCI tumour cell line growth inhibition, 48 h
HCT-116 colon = system: HCT-116 colon
A549 NSCLC = system: A549 NSCLC
LOX IMVI melanoma = system: LOX IMVI melanoma
NCI-H522 lung = system: NCI-H522 lung
HT29 colon = system: HT29 colon
SK-MEL-2 melanoma = system: SK-MEL-2 melanoma
RPMI-8226 leukemia = system: RPMI-8226 leukemia
NCI-H226 lung = system: NCI-H226 lung
OVCAR-8 ovarian = system: OVCAR-8 ovarian
SK-MEL-28 melanoma = system: SK-MEL-28 melanoma

Measured: TGI

Cc1ccccc1C(=O)N/N=C/c1ccc(Sc2nccn2C)c([N+](=O)[O-])c1
> 100 µM: HCT-116 colon | A549 NSCLC | LOX IMVI melanoma | NCI-H522 lung | HT29 colon | SK-MEL-2 melanoma | RPMI-8226 leukemia | NCI-H226 lung | OVCAR-8 ovarian | SK-MEL-28 melanoma
